In ChEMBL document CHEMBL1143547, “Fluorescence resonance energy transfer studies of aminoglycoside binding to a T box antiterminator RNA” (Bioorg Med Chem Lett, 2005):

Experiments:
Bacillus subtilis = experiment: Binding dissociation constant towards 3'-Fl-AM1A-Rhd in Bacillus subtilis tyrS; type: functional
Nucleic Acid = experiment: Maximum Frel value for binding to 3'-Fl-AM1A-Rhd in Bacillus subtilis tyr

| Structure (SMILES) | Kd (Bacillus subtilis) | Frel (Nucleic Acid) |
| --- | --- | --- |
| [H]/N=C(/N)N[C@H]1[C@H](O)[C@@H](O)[C@H](O[C@@H]2O[C@@H](C)[C@](O)(C=O)[C@H]2O[C@@H]2O[C@@H](CO)[C@H](O)[C@@H](O)[C@@H]2NC)[C@@H](N/C(N)=N\[H])[C@@H]1O (stereo in doubt) [STREPTOMYCIN] | 790 µM | 0.34 |
| NC[C@@H]1O[C@H](O[C@H]2[C@@H](O)[C@H](O[C@@H]3[C@@H](O)[C@H](N)C[C@H](N)[C@H]3O[C@H]3O[C@H](CN)[C@@H](O)[C@H](O)[C@H]3N)O[C@@H]2CO)[C@H](N)[C@@H](O)[C@@H]1O [FRAMYCETIN] | 8.5 µM | 0.46 |
| CN[C@@H]1[C@@H](O)[C@@H](O[C@@H]2[C@@H](O)[C@H](O[C@H]3O[C@H]([C@@H](C)NC)CC[C@H]3N)[C@@H](N)C[C@H]2N)OC[C@]1(C)O [GENTAMICIN C1] | 120 µM | 0.8 |
| CN[C@@H]1[C@@H](O)[C@@H](O[C@@H]2[C@@H](O)[C@H](O[C@H]3O[C@H](C(C)N)CC[C@H]3N)[C@@H](N)C[C@H]2N)OC[C@]1(C)O (stereo partly drawn) [GENTAMICIN C2] | 120 µM | 0.8 |
| NC[C@@H]1O[C@H](O[C@H]2[C@@H](O)[C@H](O[C@@H]3[C@@H](O)[C@H](N)C[C@H](N)[C@H]3O[C@H]3O[C@H](CO)[C@@H](O)[C@H](O)[C@H]3N)O[C@@H]2CO)[C@H](N)[C@@H](O)[C@@H]1O [PAROMOMYCIN] | 50 µM | 0.41 |

Second part, the compound after the results:

| Kd (Bacillus subtilis) | Frel (Nucleic Acid) | Structure (SMILES) |
| --- | --- | --- |
| 760 µM | 0.29 | NCCC(O)C(=O)N[C@@H]1C[C@H](N)[C@@H](O[C@H]2O[C@H](CN)[C@@H](O)[C@H](O)[C@H]2O)[C@H](O)[C@H]1O[C@H]1O[C@H](CO)[C@@H](O)[C@H](N)[C@H]1O (single isomer, unassigned) [AMIKACIN] |
| 150 µM | 0.38 | NC[C@H]1O[C@H](O[C@H]2[C@H](O)[C@@H](O[C@H]3O[C@H](CO)[C@@H](O)[C@H](N)[C@H]3O)[C@H](N)C[C@@H]2N)[C@H](N)[C@@H](O)[C@@H]1O [BEKANAMYCIN] |
| 210 µM |  | NC[C@@H]1O[C@@H](O[C@H]2[C@H](O)[C@@H](O[C@H]3O[C@H](CO)[C@@H](O)[C@H](N)[C@H]3O)[C@H](N)C[C@@H]2N)[C@@H](O)[C@H](O)[C@H]1O [KANAMYCIN A] |
|  | 0.21 | NC[C@H]1O[C@H](O[C@H]2[C@H](O)[C@@H](O[C@H]3O[C@H](CO)[C@@H](O)[C@H](N)[C@H]3O)[C@H](N)C[C@@H]2N)[C@H](O)[C@@H](O)[C@@H]1O [KANAMYCIN A] |
| 38 µM | 0.33 | NC[C@H]1O[C@H](O[C@H]2[C@H](O)[C@@H](O[C@H]3O[C@H](CO)[C@@H](O)[C@H](N)[C@H]3O)[C@H](N)C[C@@H]2N)[C@H](N)C[C@@H]1O [TOBRAMYCIN] |
